# Columns and labels:
# Experiment in all cases: greenhouse post-emergence treatment, herbicidal activity
# [1] = system: AMBEL; type: in vivo, Ambrosia artemisiifolia
# Method: (§1) The culture containers used were plastic pots containing loamy sand with approximately 2-3.0% of organic matter. The seeds of the test plants were sown separately for each species.
# (§2) For the post-emergence treatment, the test plants were grown to a plant height of from 3 to 15 cm, depending on the plant habit, and only then treated with the active compounds which had been suspended or emulsified in water. To this end, the test plants were either sown directly, and grown in the same containers, or they were first grown separately as seedlings and transplanted into the test containers a few days prior to treatment.
# (§3) Depending on the species, the plants were kept at 10-25° C. and 20-35° C., respectively. The test period extended over 2 to 4 weeks. During this time, the plants were tended and their response to the individual treatments was evaluated.
# (§4) Evaluation was carried out using a scale from 0 to 100. 100 means no emergence of the plants, or complete destruction of at least the above-ground parts, and 0 means no damage or normal course of growth. A good herbicidal activity is given at values of at least 70, and very good herbicidal activity is given at values of at least 85.
# (§5) In the examples below, using the method of S. R. Colby (1967) “Calculating synergistic and antagonistic responses of herbicide combinations”, Weeds 15, p. 22ff., the value E, which is expected if the activity of the individual active compounds is only additive, was calculated.
# (§6) where X=percent activity using active compound A at an application rate a; Y=percent activity using active compound B at an application rate b; E=expected activity (in %) by A+B at application rates a+b.
# (§7) where X=percent activity using active compound A at an application rate a; Y=percent activity using active compound B at an application rate b; Z=percent activity using active compound D at an application rate d; E=expected activity (in %) by A+B+D at application rates a+b+d.
# (§8) If the value found experimentally is higher than the value E calculated according to Colby, a synergistic effect is present.
# (§9) For preparation of the mixtures herbicides A were used in form of an aqueous solution comprising 22.5% by weight of the respective herbicide A. The herbicides B and D were used in form of the respective commercially available formulations as identified below. 1,5-dimethyl-6-thioxo-3-(2,2,7-trifluoro-3-oxo-4-(prop-2-ynyl)-3,4-dihydro-2H-benzo[b][1,4]oxazin-6-yl)-1,3,5-triazinane-2,4-dione (B.14) was used in form of 10% by weight suspension concentrate. If appropriate, the adjuvant DASH® HC was added to the mixtures.
# [2] = system: BRADC; type: in vivo, Brachiaria decumbens
# Method: as §1, §2, §3
# (§10) Evaluation was carried out using a scale from 0 to 100. […]
# (§11) In the examples below, using the method of S. R. Colby (1967) “Calculating synergistic and antagonistic responses of herbicide combinations”, Weeds 15, p. 22ff., the value E, which is expected if the activity of the individual active compounds is only additive, was calculated. […]
# (§12) If the value found experimentally is higher than the value E calculated according to Colby, a synergistic effect is present. […]
# [3] = system: POLPE; type: in vivo, Polygonum persicaria
# Method: as §1, §2, §3, §4, §5, §6, §7, §8, §9
# [4] = system: PANDI; type: in vivo, Panicum dichotomiflorun
# Method: as §1, §2, §3, §4, §5, §6, §7, §8, §9
# [5] = system: ERBVI; type: in vivo, Eriochloa villosa; conditions: Example 4 (title: +1% by weight DASH® HC)
# Method: as §1, §2, §3, §10, §11, §12
# [6] = system: HELAN; type: in vivo, Helianthus annuus
# Method: as §1, §2, §3, §4, §5, §6, §7, §8, §9
# [7] = system: ERICA; type: in vivo, Erigeron canadensis
# Method: as §1, §2, §3, §4, §5, §6, §7, §8, §9
# [8] = system: DIGSA; type: in vivo, Digitaria sanguinales
# Method: as §1, §2, §3, §4, §5, §6, §7, §8, §9
# [9] = system: COMBE; type: in vivo, Commelina benghalensis
# Method: as §1, §2, §3, §10, §11, §12
# [10] = system: PHBPU; type: in vivo, Pharbitis purpurea
# Method: as §1, §2, §3, §4, §5, §6, §7, §8, §9
# [11] = system: CYPES; type: in vivo, Cyperus esculentus; conditions: Example 6 (title: +1% by weight DASH® HC)
# Method: as §1, §2, §3, §10, §11, §12
# [12] = system: ECHCG; type: in vivo, Echinochloa crus-galli
# Method: as §1, §2, §3, §4, §5, §6, §7, §12
# [13] = system: CHEAL; type: in vivo, Chenopodium album
# Method: as §1, §2, §3, §4, §5, §6, §7, §12
# [14] = system: ABUTH; type: in vivo, Abutilon theophrasti
# Method: as §1, §2, §3, §4, §5, §6, §7, §12
# [15] = system: PHACA; type: in vivo, Phalaris canariensis L.; conditions: Example 10, 31.25 g/ha a.i.
# Method: as §1, §2, §3, §10, §11, §12
# [16] = system: BRAPP; type: in vivo, Urochloa platyphylla; conditions: Example 10, 31.25 g/ha a.i.
# Method: as §1, §2, §3, §10, §11, §12
# [17] = Example 5 (title: +1% by weight DASH® HC); post-emergence; a1) 31.25 g/ha a.i.
# [18] = Example 5 (title: +1% by weight DASH® HC), post-emergence, B.28 31.25 g/ha a.i.
smiles,measurement,setting,value
"CCOC(=O)C(Cl)Cc1cc(-n2nc(C)n(C(F)F)c2=O)c(F)cc1Cl (stereo not shown) [B.7, carfentrazone-ethyl]",herbicidal activity against AMBEL found,"[1]; Example 11, post-emergence, 15 g/ha a.i.",75%
same,herbicidal activity against AMBEL found,"[1]; Example 12, post-emergence, B.7 68 g/ha a.i.",70%
"O=C(O)CNCP(=O)(O)O [B.26, glyphosate]",herbicidal activity against BRADC found,"[2]; Example 1, 135 g/ha a.i.",80%
same,herbicidal activity against POLPE found,"[3]; Example 1, 135 g/ha a.i.",60%
same,herbicidal activity against AMBEL found,"[1]; Example 12, post-emergence, B.26 15 g/ha a.i.",75%
"CC(C)N(C)S(=O)(=O)NC(=O)c1cc(-n2c(=O)cc(C(F)(F)F)n(C)c2=O)c(F)cc1Cl [B.12, saflufenacil]",herbicidal activity against PANDI found,"[4]; Example 4 (title: +1% by weight DASH® HC), post-emergence, 6.25 g/ha a.i.",95%
same,herbicidal activity against ERBVI found,[5]; 6.25 g/ha a.i.,80%
"COc1c(Cl)ccc(Cl)c1C(=O)O [B.32, dicamba]",herbicidal activity against HELAN found,"[6]; Example 3, 60 g/ha a.i.",80%
same,herbicidal activity against ERICA found,"[7]; Example 3, 60 g/ha a.i.",95%
same,herbicidal activity against AMBEL found,"[1]; Example 3, post-emergence, 60 g/ha a.i.",85%
"CP(=O)(O)CCC(N)C(=O)O (stereo not shown) [B.27, glufosinate]",herbicidal activity against ERICA found,"[7]; Example 8 (title: +1% by weight DASH® HC), 100 g/ha a.i.",65%
"C/C=C1/CC2=C(C(=O)OC2=O)[C@H](CCC)[C@H](O)C(=O)C[C@@H]1O [a1), cornexistin]",herbicidal activity against BRADC found,"[2]; Example 1, 125 g/ha a.i.",50%
same,herbicidal activity against POLPE found,"[3]; Example 1, 125 g/ha a.i.",60%
same,herbicidal activity against POLPE found,"[3]; Example 2, 125 g/ha a.i.",60%
same,herbicidal activity against HELAN found,"[6]; Example 2, 125 g/ha a.i.",20%
same,herbicidal activity against HELAN found,"[6]; Example 3, 125 g/ha a.i.",20%
same,herbicidal activity against DIGSA found,"[8]; Example 2, 125 g/ha a.i.",90%
same,herbicidal activity against DIGSA found,"[8]; Example 9, 31.25 g/ha a.i.",25%
same,herbicidal activity against COMBE found,"[9]; Example 2, 125 g/ha a.i.",60%
same,herbicidal activity against ERICA found,"[7]; Example 3, 125 g/ha a.i.",40%
same,herbicidal activity against ERICA found,"[7]; Example 7 (title: +1% by weight DASH® HC), 31.25 g/ha a.i.",40%
same,herbicidal activity against ERICA found,"[7]; Example 8 (title: +1% by weight DASH® HC), 31.25 g/ha a.i.",20%
same,herbicidal activity against AMBEL found,"[1]; Example 3, post-emergence, 125 g/ha a.i.",65%
same,herbicidal activity against AMBEL found,"[1]; Example 11, post-emergence, 62.5 g/ha a.i.",90%
same,herbicidal activity against AMBEL found,[1]; Example 12; post-emergence; a1) 15 g/ha a.i.,35%
same,herbicidal activity against PANDI found,"[4]; Example 4 (title: +1% by weight DASH® HC), post-emergence, 62.5 g/ha a.i.",95%
same,herbicidal activity against PANDI found,[4]; [17],90%
same,herbicidal activity against PANDI found,"[4]; Example 6 (title: +1% by weight DASH® HC), post-emergence, 62.5 g/ha a.i.",95%
same,herbicidal activity against ERBVI found,[5]; 62.5 g/ha a.i.,90%
same,herbicidal activity against PHBPU found,[10]; [17],70%
same,herbicidal activity against PHBPU found,"[10]; Example 7 (title: +1% by weight DASH® HC), post-emergence, 31.25 g/ha a.i.",70%
same,herbicidal activity against CYPES found,[11]; 62.5 g/ha a.i.,0%
same,herbicidal activity against ECHCG found,"[12]; Example 9, 31.25 g/ha a.i.",30%
same,herbicidal activity against CHEAL found,"[13]; Example 9, 31.25 g/ha a.i.",0%
same,herbicidal activity against ABUTH found,"[14]; Example 9, 31.25 g/ha a.i.",60%
same,herbicidal activity against PHACA found,[15],25%
same,herbicidal activity against BRAPP found,[16],25%
"Cc1c(C(=O)c2cnn(C)c2O)ccc(S(C)(=O)=O)c1C1=NOCC1 [B.25, topramezone]",herbicidal activity against POLPE found,"[3]; Example 2, 12.5 g/ha a.i.",75%
same,herbicidal activity against HELAN found,"[6]; Example 2, 12.5 g/ha a.i.",80%
same,herbicidal activity against DIGSA found,"[8]; Example 2, 12.5 g/ha a.i.",65%
same,herbicidal activity against DIGSA found,"[8]; Example 9, 12.5 g/ha a.i.",70%
same,herbicidal activity against COMBE found,"[9]; Example 2, 12.5 g/ha a.i.",60%
same,herbicidal activity against ECHCG found,"[12]; Example 9, 12.5 g/ha a.i.",40%
same,herbicidal activity against CHEAL found,"[13]; Example 9, 12.5 g/ha a.i.",25%
same,herbicidal activity against ABUTH found,"[14]; Example 9, 25 g/ha a.i.",90%
"Cc1ccc2c(c1)[C@H](Nc1nc(N)nc(C(C)F)n1)[C@@H](C)C2 (stereo partly shown) [B.28, indaziflam]",herbicidal activity against ERICA found,"[7]; Example 7 (title: +1% by weight DASH® HC), 75 g/ha a.i.",75%
same,herbicidal activity against PANDI found,[4]; [18],80%
same,herbicidal activity against PANDI found,"[4]; Example 6 (title: +1% by weight DASH® HC), post-emergence, 6.25 g/ha a.i.",60%
same,herbicidal activity against PHBPU found,[10]; [18],98%
same,herbicidal activity against PHBPU found,"[10]; Example 7 (title: +1% by weight DASH® HC), post-emergence, 75 g/ha a.i.",65%
same,herbicidal activity against CYPES found,[11]; 6.25 g/ha a.i.,55%
"CCNc1nc(Cl)nc(NC(C)C)n1 [D.3, atrazine]",herbicidal activity against DIGSA found,"[8]; Example 9, 150 g/ha a.i.",0%
same,herbicidal activity against ECHCG found,"[12]; Example 9, 150 g/ha a.i.",0%
same,herbicidal activity against CHEAL found,"[13]; Example 9, 150 g/ha a.i.",35%
same,herbicidal activity against ABUTH found,"[14]; Example 9, 150 g/ha a.i.",60%

# — US20150342193A1, “Herbicidal Composition” (priority 2012, published 2015)
